≈ marks a conversion by molar mass, not a printed value. Like-named read-outs stand apart in the source and are kept apart here. Values belong to the compound of their own block, whether it stands above or below them. Where a SMILES comes first, the peptide text is derived from it.
How the values were obtained:
[1] = test system: M. abscessus clinical isolate MAB16; experiment: In vitro susceptibility testing (DST), CLSI broth microdilution; format: cell-based, M. abscessus subsp. massiliense; set-up: key to DST profile, interpretation, Day 3 / DST profile, interpretation, Day 5 / DST profile, interpretation, Day 14: S, susceptible; I, intermediate; R, resistant; conditions: for MIC: Mycobacteroides abscessus
Description: (§1) Drug susceptibility testing (DST) was performed according to the Clinical and Laboratory Standards Institute (CLSI) guidelines M24-A2 [42] using the broth microdilution method to determine the minimum inhibitory concentration (MIC). […] Colonies were grown at an adjusted cell density to a 0.5 McFarland standard and further diluted to 5×10^5 CFU/ml. […] These were then incubated at 37°C for 3, 5 and 14 days. The MIC was defined as the concentration in which no visible growth was observed. The results were interpreted according to the guidelines of CLSI. Inducible resistance was inferred by changes in MIC values from being susceptible at day 3 to resistant at day 14.

[2] = test system: M. abscessus clinical isolate MAB13; experiment: as above; format: cell-based, M. abscessus subsp. massiliense; set-up: key to DST profile, interpretation, Day 3 / DST profile, interpretation, Day 5 / DST profile, interpretation, Day 14: S, susceptible; I, intermediate; R, resistant; conditions: for MIC: Mycobacteroides abscessus
Description: as §1

[3] = test system: M. abscessus clinical isolate MAB14; experiment: as above; format: cell-based, M. abscessus subsp. massiliense; set-up: key to DST profile, interpretation, Day 3 / DST profile, interpretation, Day 5 / DST profile, interpretation, Day 14: S, susceptible; I, intermediate; R, resistant; conditions: for MIC: Mycobacteroides abscessus
Description: as §1

[4] = test system: M. abscessus clinical isolate MAB12; experiment: as above; format: cell-based, M. abscessus subsp. massiliense; set-up: key to DST profile, interpretation, Day 3 / DST profile, interpretation, Day 5 / DST profile, interpretation, Day 14: S, susceptible; I, intermediate; R, resistant; conditions: for MIC: Mycobacteroides abscessus
Description: as §1

[5] = test system: M. abscessus clinical isolate MAB15; experiment: as above; format: cell-based, M. abscessus subsp. massiliense; set-up: key to DST profile, interpretation, Day 3 / DST profile, interpretation, Day 5 / DST profile, interpretation, Day 14: S, susceptible; I, intermediate; R, resistant; conditions: for MIC: Mycobacteroides abscessus
Description: as §1

[6] = test system: M. abscessus clinical isolate MAB09; experiment: as above; format: cell-based, M. abscessus subsp. abscessus; set-up: key to DST profile, interpretation, Day 3 / DST profile, interpretation, Day 5 / DST profile, interpretation, Day 14: S, susceptible; I, intermediate; R, resistant; conditions: for MIC: Mycobacteroides abscessus
Description: as §1

[7] = test system: M. abscessus clinical isolate MAB04; experiment: as above; format: cell-based, M. abscessus subsp. abscessus; set-up: key to DST profile, interpretation, Day 3 / DST profile, interpretation, Day 5 / DST profile, interpretation, Day 14: S, susceptible; I, intermediate; R, resistant; conditions: for MIC: Mycobacteroides abscessus
Description: as §1

[8] = test system: M. abscessus clinical isolate MAB07; experiment: as above; format: cell-based, M. abscessus subsp. abscessus; set-up: key to DST profile, interpretation, Day 3 / DST profile, interpretation, Day 5 / DST profile, interpretation, Day 14: S, susceptible; I, intermediate; R, resistant; conditions: for MIC: Mycobacteroides abscessus
Description: as §1

[9] = test system: M. abscessus clinical isolate MAB10; experiment: as above; format: cell-based, M. abscessus subsp. abscessus; set-up: key to DST profile, interpretation, Day 3 / DST profile, interpretation, Day 5 / DST profile, interpretation, Day 14: S, susceptible; I, intermediate; R, resistant; conditions: for MIC: Mycobacteroides abscessus
Description: as §1

[10] = test system: M. abscessus clinical isolate MAB02; experiment: as above; format: cell-based, M. abscessus subsp. abscessus; set-up: key to DST profile, interpretation, Day 3 / DST profile, interpretation, Day 5 / DST profile, interpretation, Day 14: S, susceptible; I, intermediate; R, resistant; conditions: for MIC: Mycobacteroides abscessus
Description: as §1

[11] = not given; remark: listed apart in the source
[12] = 72 h, day 3, read-out: DST profile, MIC value, Day 3
[13] = 120 h, day 5, read-out: DST profile, MIC value, Day 5
[14] = 336 h, day 14, read-out: DST profile, MIC value, Day 14

- MIC [1, 12]: 0.2 µg/mL (≈ 0.267 µM)
- MIC [1, 13]: 2 µg/mL (≈ 2.67 µM)
- MIC [1, 14]: 2 µg/mL (≈ 2.67 µM)
- MIC [2, 12]: 8 µg/mL (≈ 10.7 µM)
- MIC [2, 13]: 32 µg/mL (≈ 42.8 µM)
- MIC [2, 14]: 32 µg/mL (≈ 42.8 µM)
- MIC [3, 12]: 512 µg/mL (≈ 685 µM)
- MIC [3, 13]: 512 µg/mL (≈ 685 µM)
- MIC [3, 14]: 512 µg/mL (≈ 685 µM)
- MIC [4, 12]: 1020 µg/mL (≈ 1370 µM)
- MIC [4, 13]: 1020 µg/mL (≈ 1370 µM)
- MIC [4, 14]: 1020 µg/mL (≈ 1370 µM)
- MIC [5, 12]: 4 µg/mL (≈ 5.35 µM)
- MIC [5, 13]: 4 µg/mL (≈ 5.35 µM)
- MIC [5, 14]: 4 µg/mL (≈ 5.35 µM)
- MIC [6, 12]: 0.25 µg/mL (≈ 0.334 µM)
- MIC [6, 13]: 8 µg/mL (≈ 10.7 µM)
- MIC [6, 14]: 8 µg/mL (≈ 10.7 µM)
- MIC [7, 12]: 2 µg/mL (≈ 2.67 µM)
- MIC [7, 13]: 16 µg/mL (≈ 21.4 µM)
- MIC [7, 14]: 64 µg/mL (≈ 85.6 µM)
- MIC [8, 12]: 4 µg/mL (≈ 5.35 µM)
- MIC [8, 13]: 16 µg/mL (≈ 21.4 µM)
- MIC [8, 14]: 16 µg/mL (≈ 21.4 µM)
- MIC [9, 12]: 1020 µg/mL (≈ 1370 µM)
- MIC [9, 13]: 1020 µg/mL (≈ 1370 µM)
- MIC [9, 14]: 1020 µg/mL (≈ 1370 µM)
- MIC [10, 12]: 1 µg/mL (≈ 1.34 µM)
- MIC [10, 13]: 8 µg/mL (≈ 10.7 µM)
- MIC [10, 14]: 64 µg/mL (≈ 85.6 µM)
SMILES: CC[C@H]1OC(=O)[C@H](C)[C@@H](O[C@H]2C[C@@](C)(OC)[C@@H](O)[C@H](C)O2)[C@H](C)[C@@H](O[C@@H]2O[C@H](C)C[C@H](N(C)C)[C@H]2O)[C@](C)(OC)C[C@@H](C)C(=O)[C@H](C)[C@@H](O)[C@]1(C)O [CLA, Clarithromycin]
- DST profile, interpretation, Day 3 ([1]; day 3, CLSI interpretation): S
- DST profile, interpretation, Day 5 ([1]; day 5, CLSI interpretation): S
- DST profile, interpretation, Day 14 ([1]; day 14, CLSI interpretation): S
- DST profile, interpretation, Day 3 ([2]; day 3, CLSI interpretation): R
- DST profile, interpretation, Day 5 ([2]; day 5, CLSI interpretation): R
- DST profile, interpretation, Day 14 ([2]; day 14, CLSI interpretation): R
- DST profile, interpretation, Day 3 ([3]; day 3, CLSI interpretation): R
- DST profile, interpretation, Day 5 ([3]; day 5, CLSI interpretation): R
- DST profile, interpretation, Day 14 ([3]; day 14, CLSI interpretation): R
- DST profile, interpretation, Day 3 ([4]; day 3, CLSI interpretation): R
- DST profile, interpretation, Day 5 ([4]; day 5, CLSI interpretation): R
- DST profile, interpretation, Day 14 ([4]; day 14, CLSI interpretation): R
- DST profile, interpretation, Day 3 ([5]; day 3, CLSI interpretation): I
- DST profile, interpretation, Day 5 ([5]; day 5, CLSI interpretation): I
- DST profile, interpretation, Day 14 ([5]; day 14, CLSI interpretation): I
- DST profile, interpretation, Day 3 ([6]; day 3, CLSI interpretation): S
- DST profile, interpretation, Day 5 ([6]; day 5, CLSI interpretation): R
- DST profile, interpretation, Day 14 ([6]; day 14, CLSI interpretation): R
- DST profile, interpretation, Day 3 ([7]; day 3, CLSI interpretation): S
- DST profile, interpretation, Day 5 ([7]; day 5, CLSI interpretation): R
- DST profile, interpretation, Day 14 ([7]; day 14, CLSI interpretation): R
- DST profile, interpretation, Day 3 ([8]; day 3, CLSI interpretation): I
- DST profile, interpretation, Day 5 ([8]; day 5, CLSI interpretation): R
- DST profile, interpretation, Day 14 ([8]; day 14, CLSI interpretation): R
- DST profile, interpretation, Day 3 ([9]; day 3, CLSI interpretation): R
- DST profile, interpretation, Day 5 ([9]; day 5, CLSI interpretation): R
- DST profile, interpretation, Day 14 ([9]; day 14, CLSI interpretation): R
- DST profile, interpretation, Day 3 ([10]; day 3, CLSI interpretation): S
- DST profile, interpretation, Day 5 ([10]; day 5, CLSI interpretation): R
- DST profile, interpretation, Day 14 ([10]; day 14, CLSI interpretation): R

SMILES: CC[C@H](C)[C@H](NC(=O)[C@H](CCCCN)NC(=O)[C@H](CCCNC(=N)N)NC(=O)CNC(=O)[C@H](CC(C)C)NC(=O)[C@H](CO)NC(=O)[C@H](CCCNC(=N)N)NC(=O)[C@H](CC(C)C)NC(=O)CNC(=O)CN)C(=O)N[C@@H](CC(C)C)C(=O)N[C@@H](CCCNC(=N)N)C(=O)N[C@@H](C)C(=O)N[C@@H](Cc1c[nH]c2ccccc12)C(=O)N[C@@H](CCCCN)C(=O)N[C@@H](CCCCN)C(=O)N[C@@H](Cc1ccc(O)cc1)C(=O)O [S61] (H-GGLRSLGRKILRAWKKY-OH)
- MIC after 3 days, MAB01 and MAB03: < 50 µg/mL
- MIC within 24 h, majority of isolates (10/16) [11]: < 50 µg/mL

Source: PMC8592419 (PLoS ONE, 2021)
